Laboratory results as given in patent US7122533B2, “Cosalane compounds and methods for their use” (The United States of America as represented by the …, priority 1999, dated 2006).
Read-outs that look alike come from different tables or passages of the source.

Key:
Type in all cases: cell-based
[1] = system: human monocytes (RANTES-induced migration); test: RANTES-induced monocyte migration (micro-chemotaxis chamber); conditions: for IC50: Homo sapiens, Monocyte, ≦ 5% standard error, NA = not active; for activity as inhibitors of RANTES-induced migration: discussion of Table 1
Procedure: (§1) Human embryonic kidney cells 293 (HEK-293) transfected to express human CCR1, CCR3, or CCR5 receptors were cultured in Dulbecco's Modified Eagles Medium (DMEM, Biowhiftaker, Walkersville, Md.) containing 10% Fetal Bovine Serum (FBS, Hyclone, Logan, Utah), 2 mM glutamine and 100 U/ml penicillin and streptomycin (Quality Biologicals, Gaithersburg, Md.). Peripheral blood mononuclear cells were isolated from fresh normal donor apheresis packs by centrifugation over Ficoll. Monocytes were enriched by 85–95% using percoll fractionation (Pharmacia, Piscataway, N.J.).
(§2) Monocyte chemotaxis was performed as previously described [Wang (1993) J. Immunol. 150:3022–3029]. Briefly, monocytes were resuspended in binding media (RPMI-1640 media containing 1% BSA, 25 mM HEPES, pH 8.0) at 1–2×10^6 cells/ml. Chemokines, diluted in binding media, were mixed with cosalane or the indicated cosalane analog and placed in the lower wells of a micro-chemotaxis chamber (Neuro Probe, Cabin John, Md.). Five micrometer polyvinyl-free polycarbonate membranes were placed over the chemokine mixtures. After the micro-chemotaxis chamber was assembled, 50 μl of cells were placed in the upper wells. The filled chemotaxis chambers were incubated in a humidified CO2 incubator for 90 minutes.
(§3) After incubating, the membranes were removed from the chemotaxis chamber assembly followed by gently removing the cells from the upper side of the membrane. Then cells on the lower side of the membrane were stained.
(§4) The number of cells migrating to the chemokine mixtures was determined for binding media alone, and chemokine treated and untreated cells. HEK-293 cells transfected to express human CCR1, CCR3 or CCR5 receptors were resuspended in binding media at 7.5×10^5 cells/ml. Ten μm polyvinyl-free polycarbonate membranes (Neuro Probe) were treated with 47 ug/ml rat tail collagen type 1 (Collaborative Biomedical Products, Bedford, Md.) in RPMI-1640 overnight, dried and placed over the chemoattractants. The assembled chemotaxis chambers were incubated in a humidified CO2 incubator for 5.5–6 hours. After the incubation, the membranes were removed from the chemotaxis chamber assembly followed by gently removing cells from the upper side of the membrane. The stained and dried membrane was mounted and the cells on the underside of the membrane were counted at 200× magnification. The results are reported as the average number of cells per high powered field at a given chemokine concentration±standard deviation.

[2] = system: MCP-4/CCR2-mediated monocyte migration; test: MCP-4-induced human monocyte migration; conditions: FIG. 3
Procedure: as §2, §3, §4
Although MCP-4 is known to bind to CCR2 and CCR3, fresh primary human monocytes only express high levels of CCR2.

[3] = biological target: T1, human CCR1 (Homo sapiens, UniProt P32246); test: MIP1β-induced migration of CCR1 transfectants; conditions: compound at 1 μM, data not shown
T1 construct: expressed in transfected cells; host or cells: HEK-293
T1 sequence (P32246 1-355): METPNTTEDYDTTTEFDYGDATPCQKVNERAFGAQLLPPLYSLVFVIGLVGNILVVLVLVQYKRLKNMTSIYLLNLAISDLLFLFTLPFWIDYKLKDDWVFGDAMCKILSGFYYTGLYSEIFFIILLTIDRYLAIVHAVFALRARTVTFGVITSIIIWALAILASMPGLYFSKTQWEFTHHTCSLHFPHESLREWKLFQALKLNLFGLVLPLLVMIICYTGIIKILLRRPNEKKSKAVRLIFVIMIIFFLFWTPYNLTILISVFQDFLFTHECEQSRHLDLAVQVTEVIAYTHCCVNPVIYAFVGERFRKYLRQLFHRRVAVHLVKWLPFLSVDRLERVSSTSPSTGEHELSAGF
Procedure: as §1, §4
(§5) The ability of compound 3 to inhibit RANTES-induced migration of human embryonic kidney (HEK) cells transfected to express individual chemokine receptors was initially tested. Although the cosalane analog 3 (1 μM) had no effect on RANTES-induced migration of CCR5 transfectants, it inhibited 50% of RANTES-induced CCR1 transfectant migration (FIG. 2). In contrast, the MIP1α- and MIP1β-induced migration of CCR1 transfectants was not inhibited by compounds 1, 2 or 3 when tested at concentrations of 1 μM (data not shown).

[4] = system: human monocytes (acetylated RANTES-induced migration); test: monocyte migration induced by acetylated (modified) RANTES; conditions: acetylated RANTES 50–1000 ng/mL, FIG. 6
Procedure: as §2, §3
as §4, with “deviation. […]” for “deviation.”

[5] = biological target: T1, human CCR1; test: RANTES-induced CCR1/HEK-293 transfectant migration
Procedure: as §1, with “Ficoll.” for “Ficoll. Monocytes were enriched by 85–95% using percoll fractionation (Pharmacia, Piscataway, N.J.).”
as §4, with “magnification.” for “magnification. The results are reported as the average number of cells per high powered field at a given chemokine concentration±standard deviation.”

[6] = biological target: T2, human CCR3 (Homo sapiens, UniProt P51677); test: eotaxin-induced CCR3/HEK-293 cell migration; conditions: eotaxin-induced CCR3/HEK-293 migration, figures
T2 construct: expressed in transfected cells; host or cells: HEK-293
T2 sequence (P51677 1-355): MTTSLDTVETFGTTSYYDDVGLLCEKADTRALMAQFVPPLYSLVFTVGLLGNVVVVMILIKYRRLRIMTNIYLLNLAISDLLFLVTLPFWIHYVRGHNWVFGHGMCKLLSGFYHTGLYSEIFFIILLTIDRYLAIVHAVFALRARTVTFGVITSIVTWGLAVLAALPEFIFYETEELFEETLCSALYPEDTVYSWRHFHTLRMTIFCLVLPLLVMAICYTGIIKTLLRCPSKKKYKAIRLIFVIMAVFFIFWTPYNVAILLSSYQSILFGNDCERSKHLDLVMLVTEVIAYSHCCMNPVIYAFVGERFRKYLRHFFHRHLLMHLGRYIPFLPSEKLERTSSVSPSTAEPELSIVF
Procedure: as §1, §4

[7] = biological target: T1, human CCR1; test: MIP1α-induced migration of CCR1 transfectants; conditions: compound at 1 μM, data not shown
Procedure: as §1, §4, §5

[8] = system: human monocytes (MIP1-α-induced migration); test: MIP1-α-induced monocyte migration; conditions: compound at 1 μM, chemokine at 2.5 ng/ml, data not shown
Procedure: as §2, with “Chemokines, diluted in binding media, were mixed with cosalane or the indicated cosalane analog and placed in the lower wells of a micro-chemotaxis chamber (Neuro Probe, Cabin John, Md.).” left out
as §3
as §4, with “magnification.” for “magnification. The results are reported as the average number of cells per high powered field at a given chemokine concentration±standard deviation.”
(§6) It is noted that both MIP1-α and MIP1-β are ligands for CCR1, CCR5, and D6 (8).

[9] = system: human monocytes (MIP1-β-induced migration); test: MIP1-β-induced monocyte migration; conditions: compound at 1 μM, chemokine at 2.5 ng/ml, data not shown
Procedure: as §2, with “Chemokines, diluted in binding media, were mixed with cosalane or the indicated cosalane analog and placed in the lower wells of a micro-chemotaxis chamber (Neuro Probe, Cabin John, Md.).” left out
as §3
as §4, with “magnification.” for “magnification. The results are reported as the average number of cells per high powered field at a given chemokine concentration±standard deviation.”
as §6

[10] = ≦ 5% standard error, NA = not active, read-out: IC50 (μM) RANTES-Induced CCRI/HEK Migration

| Compound | IC50 [1] [µM] | IC50 [5, 10] [µM] | inhibition of CCL11 (eotaxin) interaction with CCR3 [6] | activity as inhibitors of RANTES-induced migration [1] | other results |
| --- | --- | --- | --- | --- | --- |
| CC(C)CCC[C@@H](C)[C@H]1CC[C@H]2[C@@H]3CC[C@H]4C[C@@H](CCC=C(c5cc(Cl)c(O)c(C(=O)O)c5)c5cc(Cl)c(O)c(C(=O)O)c5)CC[C@]4(C)[C@H]3CC[C@]12C [Compound 1, cosalane] | 0.76 | 0.26 | inhibit | – | block of MCP-4/CCR2-mediated monocyte migration [2]: block; inhibition of MIP1β-induced migration of CCR1 transfectants [3]: not inhibited; inhibition of the activity of modified (acetylated) RANTES to attract monocytes ([4]; 30 μM compound): not inhibited; inhibition of MIP1α-induced migration of CCR1 transfectants [7]: not inhibited |
| CC(C)CCCC(C)[C@H]1CCC2C3CCC4C[C@@H](CCC=C(c5cc(Cl)c(OCc6cccc(C(=O)O)c6)c(C(=O)O)c5)c5cc(Cl)c(OCc6cccc(C(=O)O)c6)c(C(=O)O)c5)CC[C@]4(C)C3CC[C@@]21C (stereo partly drawn) [Compound 2] | 10 | 10 | inhibit | retain activity | block of MCP-4/CCR2-mediated monocyte migration [2]: block; inhibition of MIP1β-induced migration of CCR1 transfectants [3]: not inhibited; inhibition of MIP1-α-induced monocyte migration [8]: not reduced; inhibition of MIP1-β-induced monocyte migration [9]: very weak inhibitor; reduction in cell numbers, MIP1-β-induced monocyte migration [9]: less than 10%; inhibition of MIP1α-induced migration of CCR1 transfectants [7]: not inhibited |
| CC(C)CCCC(C)C1CCC2C3CCC4CC(CCC=C(c5cc(Cl)c(OCc6ccc(C(=O)O)cc6)c(C(=O)O)c5)c5cc(Cl)c(OCc6ccc(C(=O)O)cc6)c(C(=O)O)c5)CCC4(C)C3CCC12C (stereo not drawn) [Compound 5] | – | – | – | inactive | inhibition of MIP1-α-induced monocyte migration [8]: neither MiP1-α- nor MIP1-β-induced monocyte migration was inhibited; inhibition of the activity of modified (acetylated) RANTES to attract monocytes ([4]; 10 μM compound): no statistical difference; inhibition of MIP1-β-induced monocyte migration [9]: neither MiP1-α- nor MIP1-β-induced monocyte migration was inhibited |
| CC(C)CCCC(C)[C@H]1CCC2C3CCC4C[C@@H](CCC=C(c5cc(Cl)c(OCc6ccc(-c7cccc(C(=O)O)c7)cc6)c(C(=O)O)c5)c5cc(Cl)c(OCc6ccc(-c7cccc(C(=O)O)c7)cc6)c(C(=O)O)c5)CC[C@]4(C)C3CC[C@@]21C (stereo partly drawn) [Compound 6] | 3 | 9.1 | – | retain activity | – |
| CC(C)CCCC(C)[C@H]1CCC2C3CCC4C[C@@H](CCC=C(c5cc(Cl)c(OCc6cccc([N+](=O)[O-])c6)c(C(=O)O)c5)c5cc(Cl)c(OCc6cccc([N+](=O)[O-])c6)c(C(=O)O)c5)CC[C@]4(C)C3CC[C@@]21C (stereo partly drawn) [Compound 7] | 3.5 | – | – | retain activity | IC50 [5]: 5.7 µM |
| CC(C)CCCC(C)[C@H]1CCC2C3CCC4C[C@@H](CCC=C(c5cc(Cl)c(OCc6cccc(B(O)O)c6)c(C(=O)O)c5)c5cc(Cl)c(OCc6cccc(B(O)O)c6)c(C(=O)O)c5)CC[C@]4(C)C3CC[C@@]21C (stereo partly drawn) [Compound 9] | 2.2 | 4 | inhibit | – | – |
| CC(C)CCCC(C)[C@H]1CCC2C3CCC4C[C@@H](CCC=C(c5cc(Cl)c(O)c(C(=O)NCC(=O)O)c5)c5cc(Cl)c(O)c(C(=O)NCC(=O)O)c5)CC[C@]4(C)C3CC[C@@]21C (stereo partly drawn) [Compound 12] | – | – | – | – | IC50 [5]: 10 µM |
| CSCC[C@H](NC(=O)c1cc(C(=CCC[C@H]2CC[C@@]3(C)C(CCC4C3CC[C@@]3(C)C4CC[C@@H]3C(C)CCCC(C)C)C2)c2cc(Cl)c(O)c(C(=O)N[C@@H](CCSC)C(=O)O)c2)cc(Cl)c1O)C(=O)O (stereo partly drawn) [Compound 15] | 0.82 | – | – | retained activity | – |
